Measured values as given in ChEMBL document CHEMBL1201862, “PubChem BioAssay data set” (2004).
Calls of active or inactive are those of the source. Non-standard residues stand in square brackets, D forms with d. Residues, ends and D or L forms follow the SMILES beside them. ξ: configuration not given here. *: point of attachment. ξF = NC(Cc1ccccc1)C(=O)O; Cbz = O=C(OCc1ccccc1)*

Legend:
[1] = cells; format: functional, cell-based
[2] = cells; format: functional, cell-based; remark: listed apart in the source
[3] = target: T1, Replicative DNA helicase DnaB (Mycobacterium tuberculosis, UniProt P9WMR3); assay: DnaB intein splicing inhibitors, dose response, biochemical, cell-free fluorescence (AID 449749); format: functional
T1 sequence (P9WMR3 whole entry): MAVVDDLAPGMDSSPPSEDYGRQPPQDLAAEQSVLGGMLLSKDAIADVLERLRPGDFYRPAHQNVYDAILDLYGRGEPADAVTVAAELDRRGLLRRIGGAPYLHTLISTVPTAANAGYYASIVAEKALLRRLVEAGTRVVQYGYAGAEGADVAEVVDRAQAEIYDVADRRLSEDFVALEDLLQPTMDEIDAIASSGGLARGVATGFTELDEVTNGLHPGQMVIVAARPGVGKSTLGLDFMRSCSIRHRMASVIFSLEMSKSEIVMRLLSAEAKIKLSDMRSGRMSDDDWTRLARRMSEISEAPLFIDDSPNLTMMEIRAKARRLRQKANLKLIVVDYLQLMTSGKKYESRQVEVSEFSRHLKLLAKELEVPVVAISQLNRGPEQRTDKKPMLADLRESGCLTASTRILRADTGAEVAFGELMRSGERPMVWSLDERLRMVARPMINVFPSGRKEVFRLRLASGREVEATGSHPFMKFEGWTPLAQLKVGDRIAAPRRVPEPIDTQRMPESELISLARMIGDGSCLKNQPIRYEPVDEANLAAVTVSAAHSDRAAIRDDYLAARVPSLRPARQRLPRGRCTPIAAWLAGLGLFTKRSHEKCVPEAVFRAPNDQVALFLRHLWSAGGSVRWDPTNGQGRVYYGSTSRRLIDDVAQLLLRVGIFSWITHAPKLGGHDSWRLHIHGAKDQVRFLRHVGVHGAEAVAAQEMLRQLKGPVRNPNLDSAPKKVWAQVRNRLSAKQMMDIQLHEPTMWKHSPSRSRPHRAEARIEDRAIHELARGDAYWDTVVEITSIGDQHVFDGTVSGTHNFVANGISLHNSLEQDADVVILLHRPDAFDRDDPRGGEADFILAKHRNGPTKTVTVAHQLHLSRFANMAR

[4] = target: T2, Protein RecA (Mycobacterium tuberculosis, UniProt P9WHJ3); assay: Fluorescence Cell-Free Homogeneous Dose Retest to Identify Inhibitors of RecA-Intein Splicing Activity. [Related pubchem assays (depositor defined):AID2097, AID2223, AID489010, AID492950]; format: functional
T2 sequence (P9WHJ3 whole entry): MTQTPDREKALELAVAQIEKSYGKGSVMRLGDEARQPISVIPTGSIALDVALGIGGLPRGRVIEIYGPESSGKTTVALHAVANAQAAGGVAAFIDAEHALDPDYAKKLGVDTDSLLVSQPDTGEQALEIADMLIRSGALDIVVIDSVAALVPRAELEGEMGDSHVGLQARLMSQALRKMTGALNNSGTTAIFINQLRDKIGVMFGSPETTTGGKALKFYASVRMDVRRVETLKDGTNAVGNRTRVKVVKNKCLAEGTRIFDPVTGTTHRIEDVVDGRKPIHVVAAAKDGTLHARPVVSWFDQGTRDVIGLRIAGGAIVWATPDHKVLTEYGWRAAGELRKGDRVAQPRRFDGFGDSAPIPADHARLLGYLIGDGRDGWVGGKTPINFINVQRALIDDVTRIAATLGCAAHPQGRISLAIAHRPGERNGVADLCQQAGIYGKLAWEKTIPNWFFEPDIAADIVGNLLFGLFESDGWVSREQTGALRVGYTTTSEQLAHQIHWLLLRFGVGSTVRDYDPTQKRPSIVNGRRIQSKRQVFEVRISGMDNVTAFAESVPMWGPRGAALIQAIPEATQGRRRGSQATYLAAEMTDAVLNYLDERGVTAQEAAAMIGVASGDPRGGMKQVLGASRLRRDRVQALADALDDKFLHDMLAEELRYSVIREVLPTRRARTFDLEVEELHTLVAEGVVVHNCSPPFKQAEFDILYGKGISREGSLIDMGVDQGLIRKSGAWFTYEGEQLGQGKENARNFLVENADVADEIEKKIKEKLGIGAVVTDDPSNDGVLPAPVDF

[5] = target: FAD-linked sulfhydryl oxidase ALR (Homo sapiens, UniProt P55789); assay: ALR-catalysed DTT oxidation blockers – biochemical, H2O2 detection, luminescence, cherry-pick, dose response (AID 493248)
[6] = target: Nonstructural protein 1 (Influenza A virus, UniProt Q194T2); format: functional, Influenza A virus (A/California/07/2009(H1N1))
[7] = target: Cytochrome P450 3A4 (Homo sapiens, UniProt P08684);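 further: CYP3A4 tested as one member of a cytochrome P450 panel screen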
[8] = target: T3, Heat shock factor protein 1 (Mus musculus, UniProt P38532); assay: decrease of HSF1-responsive luciferase luminescence – cell-based, NIH3T3, dose retest, confirmation (AID 2382); format: functional;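 further: NIH3T3 fibroblasts with HSF1-driven luciferase reporter stressed by proteasome inhibitor MG132; luminescence from HSF1-driven luciferase expression after 8 hours of MG132 stress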
T3 sequence (P38532 whole entry): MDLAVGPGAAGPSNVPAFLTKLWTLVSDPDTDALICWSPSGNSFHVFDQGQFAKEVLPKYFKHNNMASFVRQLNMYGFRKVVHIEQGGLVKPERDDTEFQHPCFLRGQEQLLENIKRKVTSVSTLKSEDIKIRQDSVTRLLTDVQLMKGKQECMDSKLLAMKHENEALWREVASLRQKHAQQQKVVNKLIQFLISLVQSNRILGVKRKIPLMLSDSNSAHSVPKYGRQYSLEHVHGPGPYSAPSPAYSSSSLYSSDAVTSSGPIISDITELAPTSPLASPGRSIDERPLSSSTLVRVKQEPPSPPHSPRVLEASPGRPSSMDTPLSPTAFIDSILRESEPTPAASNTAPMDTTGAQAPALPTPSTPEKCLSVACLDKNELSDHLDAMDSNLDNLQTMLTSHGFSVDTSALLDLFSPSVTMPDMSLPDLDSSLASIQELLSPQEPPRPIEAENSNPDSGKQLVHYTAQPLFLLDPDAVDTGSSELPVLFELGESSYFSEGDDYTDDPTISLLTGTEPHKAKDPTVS

[9] = target: T4, Ubiquitin-conjugating enzyme E2 N (Homo sapiens, UniProt P61088); format: functional;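 further: Dose-response confirmation in a TR-FRET assay detecting UBC13-driven polyubiquitin chain formation, inhibition measured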
T4 sequence (P61088 whole entry): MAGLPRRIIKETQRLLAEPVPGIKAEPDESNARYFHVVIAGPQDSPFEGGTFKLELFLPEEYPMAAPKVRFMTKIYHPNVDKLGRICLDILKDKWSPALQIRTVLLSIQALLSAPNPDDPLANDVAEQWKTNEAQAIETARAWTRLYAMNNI

[10] = target: Luciferin 4-monooxygenase (Photinus pyralis, UniProt P08659); assay: inhibition of purified Photinus pyralis luciferase – biochemical, luminescence, dose response (AID 1891)
[11] = Luminescence Cell-Based Dose Confirmation HTS to Identify Inhibitors of Platelet Dense Granule Release. [Related pubchem assays: 1663 (Primary HTS), 1678 (Summary of Project)]; format: functional
[12] = reduction of Shn3 3'UTR-driven luciferase in osteoblasts – cell-based, Clone20 osteoblasts, firefly luciferase, cherry-picked, dose response (AID 624132); format: functional;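 further: firefly luciferase luminescence from reporter carrying the Shn3 3'UTR in osteoblasts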
[13] = viability of uninfected HEp-2 cells – cell-based, HTS, cytotoxicity control for RSV inhibitor project, dose response (AID 2410); format: functional; conditions: human respiratory syncytial virus
[14] = P. falciparum Dd2 growth inhibitors, dose response, SYBR Green, cherry-picked samples (AID 1159567); format: functional, cell-based

Nonstructural protein 1, sequence (Q194T2 whole entry): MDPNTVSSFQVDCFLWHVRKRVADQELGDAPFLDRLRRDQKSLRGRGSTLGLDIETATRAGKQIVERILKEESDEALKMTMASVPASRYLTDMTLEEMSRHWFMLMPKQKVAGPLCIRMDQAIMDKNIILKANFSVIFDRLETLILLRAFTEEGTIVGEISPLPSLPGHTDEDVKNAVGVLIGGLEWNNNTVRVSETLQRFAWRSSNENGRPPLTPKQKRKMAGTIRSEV
FAD-linked sulfhydryl oxidase ALR, sequence (P55789 whole entry): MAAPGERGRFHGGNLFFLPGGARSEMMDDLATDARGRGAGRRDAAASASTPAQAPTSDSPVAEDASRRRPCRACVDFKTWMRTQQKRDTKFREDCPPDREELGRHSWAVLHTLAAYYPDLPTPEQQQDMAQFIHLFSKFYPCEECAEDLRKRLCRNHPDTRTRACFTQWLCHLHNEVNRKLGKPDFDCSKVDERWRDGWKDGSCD
Luciferin 4-monooxygenase, sequence (P08659 whole entry): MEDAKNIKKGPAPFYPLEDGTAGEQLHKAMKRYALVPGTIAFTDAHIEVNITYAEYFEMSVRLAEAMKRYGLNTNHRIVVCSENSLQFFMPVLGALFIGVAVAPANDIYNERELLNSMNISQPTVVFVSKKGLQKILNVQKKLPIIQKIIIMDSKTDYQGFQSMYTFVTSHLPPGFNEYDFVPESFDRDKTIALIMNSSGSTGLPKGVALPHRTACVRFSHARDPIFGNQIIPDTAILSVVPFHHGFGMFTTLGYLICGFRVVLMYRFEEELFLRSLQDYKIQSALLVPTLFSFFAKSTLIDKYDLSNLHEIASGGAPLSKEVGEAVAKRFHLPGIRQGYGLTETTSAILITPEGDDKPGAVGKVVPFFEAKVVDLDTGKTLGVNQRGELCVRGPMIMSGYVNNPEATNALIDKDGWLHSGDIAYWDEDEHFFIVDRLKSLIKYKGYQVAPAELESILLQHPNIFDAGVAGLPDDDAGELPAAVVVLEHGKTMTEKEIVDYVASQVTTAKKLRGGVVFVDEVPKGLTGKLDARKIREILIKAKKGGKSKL
Cytochrome P450 3A4, sequence (P08684 whole entry): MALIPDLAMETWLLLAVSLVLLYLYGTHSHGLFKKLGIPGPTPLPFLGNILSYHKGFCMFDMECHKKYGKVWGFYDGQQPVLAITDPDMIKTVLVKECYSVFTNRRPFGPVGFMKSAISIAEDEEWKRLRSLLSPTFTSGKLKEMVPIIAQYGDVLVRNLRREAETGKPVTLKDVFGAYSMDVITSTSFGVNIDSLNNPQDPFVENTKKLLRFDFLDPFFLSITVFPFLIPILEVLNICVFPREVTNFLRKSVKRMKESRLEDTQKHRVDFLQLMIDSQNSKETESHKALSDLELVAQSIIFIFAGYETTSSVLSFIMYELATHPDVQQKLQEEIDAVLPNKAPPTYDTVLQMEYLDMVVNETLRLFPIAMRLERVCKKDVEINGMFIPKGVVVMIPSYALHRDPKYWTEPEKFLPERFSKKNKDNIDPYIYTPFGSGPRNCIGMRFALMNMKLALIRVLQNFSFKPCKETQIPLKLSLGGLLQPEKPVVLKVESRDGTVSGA

For Cc1cccc(-c2noc(CN(C)S(=O)(=O)c3cc(Cl)ccc3Cl)n2)c1, the EC50 [1] was > 350 µM (not active) and the EC50 [2] was > 350 µM (not active).
In the case of CCCOC(=O)c1ccc(OC(=O)c2ccco2)cc1, the AC50 [3] is reported as 13 µM (active) and the EC50 [4] is reported as 11.8 µM (active).
With O=C1NC(=O)/C(=C/c2ccc(OS(=O)(=O)c3ccc(F)cc3F)cc2)N1 the EC50 [1] was > 350 µM (not active) and the EC50 [2] was > 350 µM (not active).
For CC1=NN(c2ccccc2)C(=O)C1 [EDARAVONE], the AC50 [3] was 2.75 µM (active) and the EC50 [4] was 2.95 µM (active).
In the case of COc1ccc(CN2CCNC(=O)C2CC(=O)NC2CCCC2)c(OC)c1 (stereo unspecified), the EC50 [1] is reported as > 350 µM (not active) and the EC50 [2] is reported as > 350 µM (not active).
In the case of COc1cccc(-n2c(S)nnc2CCn2nc(C)c([N+](=O)[O-])c2C)c1, the AC50 [5] is reported as 10.6 µM (active).
With CCN(c1ccc(NC(=O)COC(=O)c2ccc3ccccc3n2)cc1)C(C)C the IC50 [6] was 93.5 µM (active) and the AC50 [7] was 39.8 µM (inconclusive).
For CC(C)N(c1ccccc1)c1ncnc(NCCC(=O)O)c1[N+](=O)[O-], the EC50 [1] was > 350 µM (not active) and the EC50 [2] was > 350 µM (not active).
With Cc1ccc(N2C(=O)CSC2c2cccnc2)cc1F (stereo unspecified) the AC50 [5] was 0.193 µM (active).
With OCCN(Cc1cccnc1)Cc1ccccn1 the IC50 [6] was 4.64 µM (active).
For Cc1cccc(Sc2c([N+](=O)[O-])ncn2C)c1, the AC50 [5] was 0.265 µM (active).
For CCCc1cc(C(=O)N2CCCC(N3CCN(c4ccc(F)cc4)CC3)C2)no1 (stereo unspecified), the AC50 [5] was > 100 µM (inactive).
In the case of Cc1cccc(N2CCN(C(=O)c3ccncc3)CC2C)c1 (stereo unspecified), the AC50 [5] is reported as 9.32 µM (active).
With COc1ccc(C2C(C#N)=C(N)Nc3onc(C(C)(C)C)c32)c(OC)c1 (stereo unspecified) the IC50 [6] was > 100 µM (active).
With NC(=O)c1nsc(C(=O)N(c2cccc(F)c2)C(C(=O)NC2CCCC2)c2ccco2)c1N (stereo unspecified) the EC50 [8] was > 195 µM (not active) and the IC50 [9] was > 20 µM (inactive).
For Cc1cccc(C)c1NC(=O)C1CCCN1S(=O)(=O)c1ccc(-c2ccc(O)nn2)s1 (stereo unspecified), the EC50 [10] was > 112 µM (not active) and the EC50 [11] was 47.1 µM (active).
With CN(C)c1cccc(C(=O)NCc2ccccc2)c1 the AC50 [5] was 5.25 µM (active).
For Cc1cccc(NC(=O)c2ccc(NCCO)c([N+](=O)[O-])c2)n1, the EC50 [10] was > 112 µM (not active) and the EC50 [11] was 25.5 µM (active).
In the case of Cc1n[nH]c(O)c1C(c1ccc(O)c(Br)c1)c1c(C)n[nH]c1O, the AC50 [3] is reported as 0.326 µM (active) and the EC50 [4] is reported as 0.232 µM (active).
In the case of CN(CC(=O)Nc1ccccc1Oc1ccccc1)Cc1ccccc1F, the EC50 [1] is reported as > 350 µM (not active) and the EC50 [2] is reported as > 350 µM (not active).
In the case of Cc1csc(=O)n1CC(=O)OCC(=O)c1c(N)n(C)c(=O)n(C)c1=O, the AC50 [12] is reported as 27.1 µM (active).
With CCCCN1CC(COCc2ccccc2)Oc2cccc(Oc3cc(C)c(C)c(C)c3)c2S1(=O)=O (stereo unspecified) the AC50 [12] was 9.16 µM (active).
For CCOc1ccc(-c2nc(CCl)cs2)cc1, the EC50 [10] was 40.7 µM (active) and the EC50 [11] was > 112 µM (not active).
With CCOC(=O)C1CCN(c2ncnc3cc(OC)c(OC)cc23)CC1 the EC50 [10] was > 112 µM (not active) and the EC50 [11] was 9.14 µM (active).
For CCc1nnc(NC(=O)[C@@H](NC(=O)c2ccc(OC)cc2)C(C)C)s1, the EC50 [10] was > 112 µM (not active) and the EC50 [11] was > 112 µM (not active).
In the case of COc1cc2c(cc1OC)C(c1ccccc1)N(S(C)(=O)=O)CC2 (stereo unspecified), the EC50 [1] is reported as > 350 µM (not active) and the EC50 [2] is reported as > 350 µM (not active).
For CCOC(=O)C(Cc1ccccc1)NC(=O)CNC(=O)CNC(=O)OCc1ccccc1 (stereo not drawn) (Cbz-Gly-Gly-[ξF]-OEt), the EC50 [10] was > 112 µM (not active) and the EC50 [11] was 25 µM (active).
In the case of Cc1ccc(-c2csc(NC(=O)C[n+]3cc(-c4ccc(C)cc4)n4c3CCC4)n2)cc1, the IC50 [9] is reported as > 20 µM (inactive).
In the case of COc1cccc(CNC(=O)c2cc(S(=O)(=O)N3CCOCC3)cn2C)c1, the EC50 [10] is reported as > 112 µM (not active) and the EC50 [11] is reported as > 112 µM (not active).
In the case of N#CC(c1ccccc1)c1cnccn1 (stereo unspecified), the AC50 [3] is reported as > 380 µM (inactive) and the EC50 [4] is reported as > 380 µM (inactive).
With CCOC(=O)c1cc(-c2ccccc2)nc2ccc(C)cc12 [NEOCINCHOPHEN] the IC50 [9] was > 20 µM (inactive).
With Cc1ccc2cc(CN(Cc3ccco3)C(=O)C3CCCCC3)c(O)nc2c1C the EC50 [10] was > 112 µM (not active) and the EC50 [11] was > 112 µM (not active).
With N#CC1=C(N)Oc2[nH]nc(-c3cccs3)c2C1c1ccncc1 (stereo unspecified) the AC50 [3] was 31 µM (active) and the EC50 [4] was 5.36 µM (active).
For O=C(N/N=C/c1ccc(-c2ccccc2[N+](=O)[O-])o1)[C@H]1C[C@@H]1c1ccccc1, the CC50 [13] was 18.3 µM (active), the AC50 [3] was 8.14 µM (active) and the EC50 [4] was 18.9 µM (active).
For Sc1nnc(-c2cccc3ccccc23)n1-c1cccnc1, the AC50 [5] was 8.24 µM (active).
With CCOC(=O)C1(Cc2cccc(OC)c2)CCN(CC=C(C)C)CC1 the EC50 [10] was > 112 µM (not active) and the EC50 [11] was 21.4 µM (active).
With COc1cccc(NC(=O)N2CCN(c3cccc(C)c3)C(C)C2)c1 (stereo unspecified) the AC50 [5] was 6.28 µM (active).
With CN1CCCCN2[C@@H](CO)[C@@H](c3ccc(-c4cccnc4)cc3)[C@@H]2C1 the AC50 [14] was 6.76 µM (active).
In the case of Oc1cccc(Nc2nc(-c3ccccc3Cl)nc3ccccc23)c1, the CC50 [13] is reported as 27.1 µM (active), the AC50 [3] is reported as 138 µM (active) and the EC50 [4] is reported as > 380 µM (inactive).
In the case of COC(=O)Cc1cc(O)nc(Nc2nc3ccccc3o2)n1, the IC50 [9] is reported as > 20 µM (inactive).
